{"source": "patent US20120213707A1", "about": "“Riboflavin Based Aerosol and Use as Placebo in Trials” (MPEX PHARMACEUTICALS, INC., priority 2009, published 2012)", "origin": "cited, not measured here", "system": "men and women with a history of recurrent migraine headaches", "conditions": "cited from earlier work"}
{"smiles": "Cc1cc2nc3c(=O)[nH]c(=O)nc-3n(C[C@H](O)[C@H](O)[C@H](O)CO)c2cc1C", "note": "[riboflavin]", "values": [{"measurement": "median migraine attack frequency", "setting": "400 mg of riboflavin daily for three months, 23 patients, Boehnke 2004", "value": "reduction in median migraine attack frequency"}, {"measurement": "migraine attack frequency and number of headache days versus placebo", "setting": "400 mg of riboflavin/day for three months, 54 men and women, Schoenen 1998", "value": "significantly better than placebo"}, {"measurement": "clinical outcome in migraine", "setting": "high-dose riboflavin, Sandor 2000", "value": "clinical improvement"}]}
